pIC50, pKi: −log10 of the molar value. “And” between values parts separate entries of the source, which are not always exact repeats. Equal values may be shown once. Where a name gives a salt, the structure may show the parent alone.
Columns and labels:
[1] = tested on: [^3H]-arginine transport across the blood-brain and blood-CSF barriers; assay: cross-inhibition, in situ perfusion: [^3H]-arginine with 0.5–500 μM unlabelled ADMA; assay type: in vivo, mouse
Experimental: Self-inhibition experiments were also performed. […] Cross-competition experiments were also performed.
The percentage change in the RTissue uptake values achieved in the absence or presence of an unlabelled inhibitor can be calculated by means of Eq 4.
%change=RTissue−RInhibition/RTissue×100 Eq 4
We define RInhibition as the RTissue uptake in the presence of an inhibitor in the artificial plasma.
A decrease in the uptake of radiolabelled solute in the presence of unlabelled inhibitor is indicative of a saturable influx transport system. Conversely, an increase in the uptake of radiolabelled solute in the presence of unlabelled inhibitor is indicative of a saturable efflux transport system.
Concentrations of ADMA were specifically selected to mimic plasma concentrations under normal conditions (0.5 μM), pathophysiological conditions (3.0 μM), and then supraphysiological concentrations (10, 100 and 500 μM).

eNOS = details: read-out: inhibition constant (Ki); cited from earlier work
CAT1 = details: HEK293 overexpressing CAT1; read-out: IC50, inhibition of CAT1-mediated transport of L-arginine; cited from earlier work
[2] = capillary depletion analysis after in situ brain perfusion; assay type: in vivo, mouse; design: [3H] ADMA and [14C] Sucrose uptake, homogenate / Difference (ADMA minus Sucrose), homogenate / [3H] ADMA and [14C] Sucrose uptake, supernatant / Difference (ADMA minus Sucrose), supernatant / uptake, homogenate / uptake, supernatant: unit not given here; details: 5ml/min
Experimental: The microvasculature within a sample of brain tissue can be separated from the brain parenchyma using capillary depletion analysis. Following perfusion, the remaining brain tissue after microdissection of the regions described above (typically 200–300 mg) underwent capillary depletion following a method modified for mouse. […]

[3] = 2.5 mins, Balb/c ♂, individual mouse
[4] = 20 mins, Balb/c ♂, individual mouse
[5] = 30 mins, Balb/c ♂, individual mice
[6] = CONTROL, 10 mins, Balb/c ♂, individual mouse
[7] = [3H] ADMA + [14C] Sucrose, 30 mins, Balb/c ♂, individual mice

In the case of `CN(C)C(N)=NCCC[C@H](N)C(=O)O` [ADMA, N^G,N^G-dimethylarginine dihydrochloride], the “effect on [^3H]-arginine distribution” value ([1]; 100 μM unlabelled ADMA, any of the samples analysed, 10 minutes) was “did not inhibit”, the “inhibition of [^3H]-arginine distribution” value ([1]; 500 μM unlabelled ADMA, choroid plexus, 10 minutes) was 72.6% and the “inhibition of [^3H]-arginine uptake” value ([1]; 500 μM unlabelled ADMA, each of the brain regions, 10 minutes) was “approximately 70%”. The “inhibition of [^3H]-arginine distribution” value ([1]; 500 μM unlabelled ADMA, supernatant (brain parenchyma), 10 minutes) was 72.0%, the “inhibition of [^3H]-arginine distribution” value ([1]; 500 μM unlabelled ADMA, whole brain homogenate, 10 minutes) was 65.1% and the “effect on transport of [^3H]-arginine ([…]) across the blood-CNS barriers” value ([1]; 0.5–100 μM unlabelled ADMA) was “insensitive to inhibition”. The “effect on [^3H]-arginine distribution” value ([1]; any concentration of unlabelled ADMA (0.5–500 μM), CSF, pineal gland and pituitary gland, 10 minutes) was “not affected”, the “effect on [^3H]-arginine distribution” value ([1]; up to 500 μM unlabelled ADMA, cerebral capillary endothelial cells (pellet), 10 minutes) was “not affected” and the pKi (eNOS) was 6.05. The pIC50 (CAT1) was 3.12, the “Difference (ADMA minus Sucrose), homogenate” value [2, 3] was 0.08009 and 0.1215 and 0.06334 and 0.05481 and 0.07702 and the “Difference (ADMA minus Sucrose), pellet” value [2, 3] was 0.01248 and 0.007546 and 0.01055 and 0.0124. For the same compound, the “Difference (ADMA minus Sucrose), supernatant” value [2, 3] was 0.05051 and 0.03514 and 0.04142 and 0.05329, the “[3H] ADMA and [14C] Sucrose uptake, homogenate” value [2, 3] was 0.09289 and 0.1482 and 0.07368 and 0.06461 and 0.09146 and the “[3H] ADMA and [14C] Sucrose uptake, pellet” value [2, 3] was 0.01492 and 0.009191 and 0.01385 and 0.01522. For the same compound, the “[3H] ADMA and [14C] Sucrose uptake, supernatant” value [2, 3] was 0.06123 and 0.0402 and 0.05083 and 0.0645, the “Difference (ADMA minus Sucrose), homogenate” value [2, 4] was 0.2153 and 0.186 and 0.3039 and 0.2292 and 0.1075 and the “Difference (ADMA minus Sucrose), pellet” value [2, 4] was 0.01581 and 0.02784 and 0.03159 and 0.04237 and 0.006518. For the same compound, the “Difference (ADMA minus Sucrose), supernatant” value [2, 4] was 0.1074 and 0.1722 and 0.2036 and 0.1573 and 0.05863, the “[3H] ADMA and [14C] Sucrose uptake, homogenate” value [2, 4] was 0.2383 and 0.2004 and 0.3388 and 0.2498 and 0.142 and the “[3H] ADMA and [14C] Sucrose uptake, pellet” value [2, 4] was 0.01706 and 0.03 and 0.03434 and 0.04519 and 0.01122. The “[3H] ADMA and [14C] Sucrose uptake, supernatant” value [2, 4] was 0.1162 and 0.1882 and 0.2293 and 0.1698 and 0.07807, the “Difference (ADMA minus Sucrose), homogenate” value [2, 5] was 0.07039 and 0.3122 and 0.07479 and 0.04539 and 0.1073 and the “Difference (ADMA minus Sucrose), pellet” value [2, 5] was 0.01163 and 0.01136 and 0.007805 and 0.01411. For the same compound, the “Difference (ADMA minus Sucrose), supernatant” value [2, 5] was 0.1199 and 0.1088 and 0.02622 and 0.04075 and 0.06521, the “Difference (ADMA minus Sucrose), homogenate” value [2, 6] was 0.2688 and 0.161 and 0.1425 and -0.07309 and the “Difference (ADMA minus Sucrose), pellet” value [2, 6] was 0.02507 and 0.05085 and 0.009734 and 0.01917 and -0.0657. For the same compound, the “Difference (ADMA minus Sucrose), supernatant” value [2, 6] was 0.07602 and 0.1167 and 0.08919 and 0.1193 and 0.02984, the “[3H] ADMA and [14C] Sucrose uptake, homogenate” value [2, 6] was 0.1657 and 0.3684 and 0.1901 and 0.1639 and 0.2325 and the “[3H] ADMA and [14C] Sucrose uptake, pellet” value [2, 6] was 0.02884 and 0.07512 and 0.03345 and 0.03555 and 0.0904. The “[3H] ADMA and [14C] Sucrose uptake, supernatant” value [2, 6] was 0.1611 and 0.1028 and 0.139 and 0.1685, the “uptake, homogenate” value [2, 7] was 0.08533 and 0.3484 and 0.1186 and 0.07545 and 0.1502 and the “uptake, pellet” value [2, 7] was 0.01575 and 0.016 and 0.01288 and 0.01992. For the same compound, the “uptake, supernatant” value [2, 7] was 0.135 and 0.1332 and 0.05406 and 0.0758 and 0.09832, the Kp at 20 min, 62.5 nM ([2]; male, BALB/c, mouse, capillary depletion pellet (endothelial cell-enriched), Difference (ADMA minus Sucrose), pellet, 20 mins, mean) was 0.0248 and the Kp at 20 min, 62.5 nM ([2]; male, BALB/c, mouse, capillary depletion pellet (endothelial cell-enriched), [3H] ADMA and [14C] Sucrose uptake, pellet, 20 mins, mean) was 0.0276. The Kp at […] ([2]; male, BALB/c, mouse, capillary depletion supernatant (brain parenchyma), Difference (ADMA minus Sucrose), supernatant, 2.5 mins, individual mouse) was 0.0611, the Kp at […] ([2]; male, BALB/c, mouse, capillary depletion supernatant (brain parenchyma), Difference (ADMA minus Sucrose), supernatant, 2.5 mins, mean) was 0.0483 and the Kp at 20 min, 62.5 nM ([2]; male, BALB/c, mouse, capillary depletion supernatant (brain parenchyma), Difference (ADMA minus Sucrose), supernatant, 20 mins, mean) was 0.14. For the same compound, the Kp at […] ([2]; male, BALB/c, mouse, capillary depletion supernatant (brain parenchyma), [3H] ADMA and [14C] Sucrose uptake, supernatant, 2.5 mins, individual mouse) was 0.0737, the Kp at […] ([2]; male, BALB/c, mouse, capillary depletion supernatant (brain parenchyma), [3H] ADMA and [14C] Sucrose uptake, supernatant, 2.5 mins, mean) was 0.0581 and the Kp at 20 min, 62.5 nM ([2]; male, BALB/c, mouse, capillary depletion supernatant (brain parenchyma), [3H] ADMA and [14C] Sucrose uptake, supernatant, 20 mins, mean) was 0.156. It also gave a Kp at 30 min, 62.5 nM ([2]; male, BALB/c, mouse, capillary depletion supernatant (brain parenchyma), other: in situ brain perfusion, Difference (ADMA minus Sucrose), supernatant, 30 mins, Balb/c ♂, mean) of 0.0722.

Reference: article PMC11501026, “L-Arginine and asymmetric dimethylarginine (ADMA) transport across the mouse blood-brain and blood-CSF barriers: Evidence of saturable transport at both interfaces and CNS to blood efflux” (PLOS ONE, 2024)
